These results are taken from paper PMC12152147, “DDB1 engagement defines the selectivity of S656 analogs for cyclin K degradation over CDK inhibition” (EMBO Reports, 2025).

Experiment [1] deals with OCI-AML5 and U937 cell lines. Put plainly: Synergistic interaction assay with THZ531 (Bliss score). The format is cell-based. An excerpt: 3. It may be worthwhile to investigate whether the CDK12/13 inhibitor THZ531 could synergize with S656 or analogues like UOM-005636 that specifically degrade Cyclin K, in combination cytotoxicity assays, assessing selective suppression of AML viability over normal cells. Both […]
inhibiting CDK12, and S656 / UOM-005636 by degrading Cyclin K. Similar synergistic effects were observed by Katharina et al., where THZ531 promoted prostate ca ncer cell sensitivity to androgen deprivation therapy [Frei, K et. al. Inhibition of the Cyclin K-CDK12 complex induces DNA damage and increases the effect of androgen deprivation therapy in prostate cancer. Int J […]
Indeed, THZ531 is a covalent CDK12/13 inhibitor that specifically binds to the kinase pocket of […]
pocket of CDK12, and that pre-incubation with THZ531 competes with S656-mediated Cyclin K degradation (see Figure 5E).
We performed a synergistic interaction assay between THZ531 and S656 or UOM-005636 in OCI-AML5 and U937 cell lines (see below). […]
interactions between THZ531 and our cyclin K degrader molecules. This is likely due to both drugs competing for the same binding site, rather than acting through complementary pathways. […]

The target in experiment [2] is T1, OCI-AML5 total protein extracts (cyclin K, CDKs, DDB1) (Homo sapiens, UniProt P21439).
T1 construct: endogenous in cells; host or cells: OCI-AML5 total protein extract
T1 sequence (P21439 whole entry): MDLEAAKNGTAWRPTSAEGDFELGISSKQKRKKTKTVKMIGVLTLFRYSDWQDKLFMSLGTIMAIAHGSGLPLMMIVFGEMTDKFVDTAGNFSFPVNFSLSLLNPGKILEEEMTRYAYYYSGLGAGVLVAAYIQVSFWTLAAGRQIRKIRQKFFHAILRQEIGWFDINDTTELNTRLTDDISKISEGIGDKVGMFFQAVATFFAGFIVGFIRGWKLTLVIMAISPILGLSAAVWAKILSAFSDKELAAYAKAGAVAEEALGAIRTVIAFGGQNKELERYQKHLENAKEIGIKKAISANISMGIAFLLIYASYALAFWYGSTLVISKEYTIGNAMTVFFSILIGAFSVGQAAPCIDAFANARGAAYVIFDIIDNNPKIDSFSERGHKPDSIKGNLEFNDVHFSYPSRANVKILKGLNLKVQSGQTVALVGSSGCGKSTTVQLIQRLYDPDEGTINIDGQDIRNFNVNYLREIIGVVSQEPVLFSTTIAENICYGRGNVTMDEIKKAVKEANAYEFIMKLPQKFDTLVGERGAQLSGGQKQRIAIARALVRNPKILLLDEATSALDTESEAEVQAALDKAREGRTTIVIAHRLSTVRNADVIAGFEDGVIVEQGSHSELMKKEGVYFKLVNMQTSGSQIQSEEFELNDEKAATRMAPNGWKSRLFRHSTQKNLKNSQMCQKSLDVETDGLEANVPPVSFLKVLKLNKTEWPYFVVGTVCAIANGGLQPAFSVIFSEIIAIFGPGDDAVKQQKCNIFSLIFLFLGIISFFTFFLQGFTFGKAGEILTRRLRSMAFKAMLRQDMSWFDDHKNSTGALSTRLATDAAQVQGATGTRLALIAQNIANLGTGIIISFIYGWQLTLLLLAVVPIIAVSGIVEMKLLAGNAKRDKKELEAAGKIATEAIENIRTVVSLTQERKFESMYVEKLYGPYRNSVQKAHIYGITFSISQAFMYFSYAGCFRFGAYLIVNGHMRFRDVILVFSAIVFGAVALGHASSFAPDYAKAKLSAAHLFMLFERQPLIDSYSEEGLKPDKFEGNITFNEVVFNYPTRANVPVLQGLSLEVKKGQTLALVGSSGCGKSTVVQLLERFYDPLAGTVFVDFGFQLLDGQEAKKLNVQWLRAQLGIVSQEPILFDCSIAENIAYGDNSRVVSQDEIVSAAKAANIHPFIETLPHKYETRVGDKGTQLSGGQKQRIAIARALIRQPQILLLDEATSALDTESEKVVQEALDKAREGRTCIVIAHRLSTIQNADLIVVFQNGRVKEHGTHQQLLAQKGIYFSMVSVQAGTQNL
Put plainly: Pull-down with immobilized probes and quantitative mass spectrometry. The settings on record: protein ABCB4 (P21439). The format is binding, H. sapiens. How it is done: (§1) Probe compounds were immobilized through their terminal amine on NHS-sepharose beads as previously described (Médard et al, [2015]). The prepared beads were then washed in PBS and equilibrated in Triton X-100 buffer. For each replicate, 1–2 mg of total proteins (2 mg/ml) were incubated end-over-end with 25 μl of beads overnight at 4 °C in low protein binding microtubes (Sarstedt). The samples were then washed twice in Triton X-100 buffer, transferred to new microtubes and further washed six times in PBS including another microtube transfer at the last wash. Beads pellets were resuspended in 50 mM ammonium bicarbonate and subjected to reduction, alkylation and tryptic digest as described above. Peptides were separated on an home-made reversed-phase column (150-μm i.d. by 200 mm) with a 56-min gradient from 10 to 30% ACN-0.2% FA and a 600-nl/min flow rate on a Easy nLC-1200 connected to a Exploris 480 (ThermoFisher Scientific, San Jose, CA). Each full MS spectrum acquired at a resolution of 120,000 was followed by tandem-MS (MS-MS) spectra acquisition on the most abundant multiply charged precursor ions for 3 s. Tandem-MS experiments were performed using higher energy collision dissociation (HCD) at a collision energy of 34%. The data were processed using PEAKS X Pro (Bioinformatics Solutions, Waterloo, ON) and a Uniprot human database (20366 entries). Mass tolerances on precursor and fragment ions were 10 ppm and 0.01 Da, respectively. Fixed modification was carbamidomethyl (C). Variable selected posttranslational modifications were acetylation (N-ter), oxidation (M), deamidation (NQ), phosphorylation (STY). The data were visualized with Scaffold 5.0 (protein threshold, 99%, with at least 2 peptides identified and a false-discovery rate [FDR] of 1% for peptides).
(§2) Differential Enrichment analysis of Proteomics data (DEP) package (Zhang et al, [2018]) in R was used to analyze the data (excluding proteins identified based on a single peptide), including data filtering, normalization, imputation of missing values and statistical testing of differentially expressed proteins.

Experiment [3] concerns the target T2, OCI-AML5 total protein extracts (cyclin K, CDKs, DDB1) (Homo sapiens, UniProt P45844).
T2 construct: endogenous in cells; host or cells: OCI-AML5 total protein extract
The description is as above. The settings on record: protein ABCG1 (P45844). The class given is binding, H. sapiens. As for the experimental part:
as §1, §2

For experiment [4], the target named is T3, OCI-AML5 total protein extracts (cyclin K, CDKs, DDB1) (Homo sapiens, UniProt Q16531).
T3 construct: endogenous in cells; host or cells: OCI-AML5 total protein extract
T3 sequence (Q16531 whole entry): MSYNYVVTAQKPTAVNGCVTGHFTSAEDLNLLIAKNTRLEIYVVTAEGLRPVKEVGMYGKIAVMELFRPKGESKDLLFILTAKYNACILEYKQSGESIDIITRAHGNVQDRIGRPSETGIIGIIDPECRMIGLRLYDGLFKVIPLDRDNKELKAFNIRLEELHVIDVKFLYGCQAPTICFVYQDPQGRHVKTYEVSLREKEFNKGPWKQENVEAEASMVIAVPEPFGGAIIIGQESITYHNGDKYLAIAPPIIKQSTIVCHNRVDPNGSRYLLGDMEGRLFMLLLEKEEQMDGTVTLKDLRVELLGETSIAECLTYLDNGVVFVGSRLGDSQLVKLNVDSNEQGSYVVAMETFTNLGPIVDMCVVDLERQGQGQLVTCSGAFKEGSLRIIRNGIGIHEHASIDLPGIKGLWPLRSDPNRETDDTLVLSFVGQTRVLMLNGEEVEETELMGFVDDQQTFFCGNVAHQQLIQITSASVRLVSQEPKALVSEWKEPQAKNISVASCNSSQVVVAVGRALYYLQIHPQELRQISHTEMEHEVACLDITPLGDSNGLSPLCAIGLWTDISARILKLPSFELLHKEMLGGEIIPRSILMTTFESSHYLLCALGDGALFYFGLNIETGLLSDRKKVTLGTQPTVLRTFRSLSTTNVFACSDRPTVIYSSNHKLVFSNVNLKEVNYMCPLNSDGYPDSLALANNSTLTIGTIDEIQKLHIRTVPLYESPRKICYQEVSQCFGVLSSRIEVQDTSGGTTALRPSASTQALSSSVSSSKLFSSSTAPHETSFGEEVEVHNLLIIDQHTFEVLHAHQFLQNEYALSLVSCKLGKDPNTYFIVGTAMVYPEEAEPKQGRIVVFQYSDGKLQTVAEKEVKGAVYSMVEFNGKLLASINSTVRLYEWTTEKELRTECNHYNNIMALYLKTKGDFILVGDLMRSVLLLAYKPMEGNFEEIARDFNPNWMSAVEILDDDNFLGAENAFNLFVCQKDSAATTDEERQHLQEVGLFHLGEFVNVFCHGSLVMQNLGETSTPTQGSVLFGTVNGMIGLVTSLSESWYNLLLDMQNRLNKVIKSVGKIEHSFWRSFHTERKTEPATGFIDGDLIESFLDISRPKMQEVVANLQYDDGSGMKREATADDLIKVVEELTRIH
The description is as above. The class given is binding, H. sapiens. The following applies: OCI-AML5 total protein extracts. How it is done: as §1, §2

The target in experiment [5] is T4, OCI-AML5 total protein extracts (cyclin K, CDKs, DDB1) (Homo sapiens, UniProt Q6UXT9).
T4 construct: endogenous in cells; host or cells: OCI-AML5 total protein extract
T4 sequence (Q6UXT9 24-468): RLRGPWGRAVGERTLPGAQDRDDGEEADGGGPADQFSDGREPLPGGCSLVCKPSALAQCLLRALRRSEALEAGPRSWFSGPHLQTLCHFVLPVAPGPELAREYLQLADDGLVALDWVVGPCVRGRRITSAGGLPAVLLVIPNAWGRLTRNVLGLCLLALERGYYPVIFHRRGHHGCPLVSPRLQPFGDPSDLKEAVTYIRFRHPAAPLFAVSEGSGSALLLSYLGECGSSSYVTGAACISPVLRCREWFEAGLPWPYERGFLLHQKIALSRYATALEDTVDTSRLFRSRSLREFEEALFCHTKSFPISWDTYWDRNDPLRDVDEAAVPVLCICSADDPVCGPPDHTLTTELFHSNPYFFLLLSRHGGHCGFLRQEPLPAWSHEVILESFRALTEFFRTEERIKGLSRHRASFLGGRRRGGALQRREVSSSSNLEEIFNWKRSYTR
The experiment is described as above. The format is binding, H. sapiens. The settings on record: protein ABHD15 (Q6UXT9). How it is done: as §1, §2

Setting [6] is: centered abundance, competition (compe).
Setting [7] is: probe vs probe with competition.
The mark [8] stands for this setting: probe with competition (compe) vs UOM-005839.
[9] abbreviates: probe with competition (compe) vs beads.

As to `CN(C)c1ccc(CC(=O)Nc2ncc(SCc3cccnc3)s2)cc1` [S656], the “synergistic interaction with THZ531 (Bliss score)” value in experiment [1] is given as “moderate to very low synergistic”.
In the case of `CN(CCOCCOCCN)c1ccc(CC(=O)Nc2ncc(SCc3cccnc3)s2)cc1` [UOM-005790], the UOM-005790_centered in experiment [2] (centered abundance) is on record as -2.58; in experiment [3] (centered abundance), 2.21; in experiment [5] (centered abundance) it was 1.53. Also, the values for the UOM-005790compe_centered in experiment [2] (setting [6]), in experiment [3] (setting [6]) and in experiment [5] (setting [6]) were -1.22, 1.7 and 1.26, respectively. Besides, the UOM-005790_vs_Beads_ratio in experiment [2] (immobilized probe vs beads) was -5.48; in experiment [3] (immobilized probe vs beads) it was 4.82; in experiment [5] (immobilized probe vs beads), 5.2. Besides, the UOM-005790_vs_UOM-005839_ratio in experiment [2] (probe vs probe UOM-005839) is recorded as -3.49; in experiment [3] (probe vs probe UOM-005839), 3.51; in experiment [5] (probe vs probe UOM-005839), 0.645. For the same compound, the UOM-005790_vs_UOM-005790compe_ratio in experiment [2] (setting [7]) was -1.36; in experiment [3] (setting [7]) it was 0.512; in experiment [5] (setting [7]), 0.275. The results for the UOM-005790compe_vs_UOM-005839_ratio in experiment [2] (setting [8]), in experiment [3] (setting [8]) and in experiment [5] (setting [8]) were -2.12, 3 and 0.37, respectively. Moreover, the results for the UOM-005790compe_vs_Beads_ratio in experiment [2] (setting [9]), in experiment [3] (setting [9]) and in experiment [5] (setting [9]) were -4.12, 4.31 and 4.93, respectively. In addition, the “pull-down enrichment of DDB1” value in experiment [4] is “not enriched”.
